# Data taken from paper PMC5622107, “Small molecule inhibition of cGAS reduces interferon expression in primary macrophages from autoimmune mice” (Nature Communications, 2017).
# Columns and labels:
# m-cGAS = biological target: T1, m-cGAS (Mus musculus, UniProt Q8C6L5); experiment: Kinetics of m-cGAS in the presence of RU.365 (RF-MS); assay type: biochemical
# T1 construct: recombinant full-length mouse cGAS in reaction buffer; His6-SUMO (N, cleaved yes); made in house; host or cells: E. coli BL21(DE3) RIL
# T1 sequence (Q8C6L5 whole entry): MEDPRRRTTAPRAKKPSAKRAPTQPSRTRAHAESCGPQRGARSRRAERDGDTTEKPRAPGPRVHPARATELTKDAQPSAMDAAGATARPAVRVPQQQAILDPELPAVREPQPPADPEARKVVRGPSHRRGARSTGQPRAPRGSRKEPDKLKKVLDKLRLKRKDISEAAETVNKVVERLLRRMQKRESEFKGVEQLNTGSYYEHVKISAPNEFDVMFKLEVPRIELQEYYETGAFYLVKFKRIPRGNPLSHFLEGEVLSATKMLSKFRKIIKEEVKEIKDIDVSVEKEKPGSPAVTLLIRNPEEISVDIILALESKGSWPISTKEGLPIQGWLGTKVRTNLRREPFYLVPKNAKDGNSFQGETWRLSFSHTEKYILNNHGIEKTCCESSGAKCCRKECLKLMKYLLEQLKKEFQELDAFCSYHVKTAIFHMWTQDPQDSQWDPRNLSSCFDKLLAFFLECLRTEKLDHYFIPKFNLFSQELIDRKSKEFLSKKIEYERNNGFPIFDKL
# Procedure: Kinetics parameters of cGAMP formation were determined in the reaction mixtures carried out in 20 μl volumes in 384 small volume deep well polypropylene plates. The final concentration of m-cGAS enzyme and dsDNA were 60 nM and 300 nM, respectively. To determine if RU.365 was competitive against ATP and/or GTP, different concentrations of RU.365 ranging from 0.8 µM to 6.3 µM were tested, keeping one substrate fixed at 300 µM while varying the other one. Apparent K m ^app and apparent V max ^app values were also calculated in the presence and absence of the small molecule. RU.365 was diluted by half in DMSO for a total of four dilutions where the highest final concentration in the assay was 6.3 μM. Ten microliters of reaction buffer composed of 20 mM Tris-HCl pH 7.4, 150 mM NaCl, 5 mM MgCl2, and 0.01% Tween-20 were dispensed per well using a Thermo Multidrop Combi dispenser (Thermo Scientific). The liquid was collected at the well bottom by centrifugation for 30 s at 180×g. In all, 0.1 μl of RU.365 serially diluted in DMSO were dispensed with a Janus 384 MDT NanoHead (PerkinElmer).
# Each reaction containing a variable substrate concentration was performed in a different plate. A separate column containing different amounts of cGAMP was also included in each plate in order to construct the calibration curve and calculate the µmoles of product formed. Twenty different master mix solutions were prepared in reaction buffer supplemented with 2 mM DTT and 1.2 µM dsDNA. Of these, Ten master mix solutions were prepared with different concentrations of GTP ranging from 2.36 µM to 1.2 mM while keeping the concentration of ATP fixed at 1.2 mM and vice versa for the other 10 master mix solutions. Five microliters of these solutions with variable substrate concentration were added for each reaction. Finally, the reaction was started by adding 5 μl of 0.24 μM recombinant full-length mouse cGAS in reaction buffer supplemented with 2 mM DTT to each well of the plate followed by centrifugation for 30 s at 180×g and incubation for 120 min at room temperature. The reaction was stopped by addition of 60 μl of 0.5% (v/v) formic acid per well. The plates were centrifuged for 30 s at 180×g and sealed with a Velocity11 PlateLoc thermal plate sealer. To calculate IC50 log (inhibitor) vs. response, a variable slope non-linear fit from GraphPad Prism (7.01) was used, using three replicate experiments; error bars represent SD. The kinetics parameters were obtained fitting the curves to an allosteric sigmoidal nonlinear fit using the same software.
# [1] = system: BMDM cells from Trex1 −/− mice; experiment: IFNB1 expression by qRT-PCR in BMDMs from Trex1 −/− mice; assay type: cell-based, mouse; conditions: 24 h treatment at IC50, qRT-PCR
# Source text: C57BL/6 wild type and Trex1 ^−/− offspring from Trex1 ^+/− crosses (a kind gift from Dr Dan Stetson, University of Washington) were harvested at 6–8 weeks of age. Femurs and tibias were removed from age- and sex-matched mice. The ends were clipped and marrow pushed from bones via syringe. Clumps were broken apart via pipetting, rinsed, and pelleted in PBS, passed through a cell strainer, and plated in seven 100 mm petri dishes per mouse. Cells were matured in media described under the methods for cell lines with an additional 10 ng ml^−1 M-CSF (for a total of 20 ng ml^−1 M-CSF during the maturation period). On Day 7, cells were counted and re-plated at 5 × 10^5 cells ml^−1 in 100 mm petri dishes. BMDMs were maintained by adding an equal volume of media to each dish every 2 days after harvesting and performing a complete media change every 4 days after harvesting. IACUC protocols for humane termination of mice for Vanderbilt University were strictly followed.
# BMDMs were incubated in the presence of DMSO or the various inhibitors, then harvested 24 h later. RNA was extracted using Trizol and chloroform. […] Real-time PCR against murine Actb1 and IFNB1 (see Supplementary Table 5 for primer sequences used) was carried out and the data was analyzed as previously described in the method section for cytokine analysis in RAW macrophages.
# [2] = varying ATP, GTP fixed, RU.365 0.8 µM
# [3] = varying ATP, GTP fixed, RU.365 1.6 µM
# [4] = varying ATP, GTP fixed, RU.365 3.2 µM
# [5] = varying ATP, GTP fixed, RU.365 6.3 µM
# [6] = varying GTP, ATP fixed, RU.365 0.8 µM
# [7] = varying GTP, ATP fixed, RU.365 1.6 µM
# [8] = varying GTP, ATP fixed, RU.365 3.2 µM
# [9] = varying GTP, ATP fixed, RU.365 6.3 µM
mechanism of inhibition against ATP or GTP (m-cGAS),Kmapp (m-cGAS; [2]),kcat (m-cGAS; [2]),Kmapp (m-cGAS; [3]),kcat (m-cGAS; [3]),Kmapp (m-cGAS; [4]),kcat (m-cGAS; [4]),Kmapp (m-cGAS; [5]),kcat (m-cGAS; [5]),Kmapp (m-cGAS; [6]),kcat (m-cGAS; [6]),Kmapp (m-cGAS; [7]),kcat (m-cGAS; [7]),Kmapp (m-cGAS; [8]),kcat (m-cGAS; [8]),Kmapp (m-cGAS; [9]),kcat (m-cGAS; [9]),SMILES,IFNB1 expression [1]
non-competitive inhibitor,109.1 µM,0.283 s⁻¹,115.5 µM,0.233 s⁻¹,113.4 µM,0.152 s⁻¹,107.3 µM,0.0717 s⁻¹,77.8 µM,0.283 s⁻¹,89.7 µM,0.233 s⁻¹,79.7 µM,0.152 s⁻¹,89.4 µM,0.0717 s⁻¹,Cc1nn(-c2nc3ccccc3[nH]2)c(O)c1C1OC(=O)c2ccccc21 (stereo not drawn) [RU166365],
,,,,,,,,,,,,,,,,,"Cc1nn(-c2nc3ccc(Cl)c(Cl)c3[nH]2)c(O)c1C1OC(=O)c2ccccc21 (stereo not drawn) [RU320521, 3-[1-(6,7-dichloro-1H-benzimidazol-2-yl)-5-hydroxy-3-methyl-pyrazol-4-yl]-3H-isobenzofuran-1-one]",reduced IFNB1 expression
